{"source": "paper PMC3200564", "about": "(European journal of nuclear medicine and molecular imaging, 2011)", "key": {"[1]": {"target": "TEM8 (293-TEM8 cells) (Homo sapiens, UniProt Q9H6X2)", "sequence (Q9H6X2 33-564)": "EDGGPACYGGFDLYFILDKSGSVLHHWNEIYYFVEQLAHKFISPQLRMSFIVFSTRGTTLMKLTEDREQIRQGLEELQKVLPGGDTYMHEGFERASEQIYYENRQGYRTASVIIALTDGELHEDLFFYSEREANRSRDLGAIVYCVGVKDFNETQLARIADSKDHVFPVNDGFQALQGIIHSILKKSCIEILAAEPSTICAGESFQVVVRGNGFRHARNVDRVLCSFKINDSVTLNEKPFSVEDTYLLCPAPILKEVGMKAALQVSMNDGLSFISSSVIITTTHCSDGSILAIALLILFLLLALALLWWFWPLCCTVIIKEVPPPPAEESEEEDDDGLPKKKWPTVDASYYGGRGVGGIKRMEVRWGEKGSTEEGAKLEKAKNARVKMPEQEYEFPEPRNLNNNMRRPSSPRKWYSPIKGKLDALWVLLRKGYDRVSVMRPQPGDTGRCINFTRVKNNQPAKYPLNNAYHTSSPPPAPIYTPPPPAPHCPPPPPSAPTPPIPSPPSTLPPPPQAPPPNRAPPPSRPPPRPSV", "experiment": "biochemical", "format": "binding"}, "[2]": {"target": "T1, extracellular vWA domain of TEM8 (Homo sapiens, UniProt Q9H6X2)", "T1 sequence (Q9H6X2 44-215 limits assumed)": "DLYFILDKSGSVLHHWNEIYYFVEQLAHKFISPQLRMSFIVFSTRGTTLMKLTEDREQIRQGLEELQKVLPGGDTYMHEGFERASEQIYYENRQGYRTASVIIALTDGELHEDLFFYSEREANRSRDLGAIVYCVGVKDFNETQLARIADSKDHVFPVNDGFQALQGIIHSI", "experiment": "biochemical", "format": "binding"}}}
{"smiles": "CC[C@H](C)[C@H](NC(=O)[C@H](Cc1ccc(O)cc1)NC(=O)[C@H](CC(C)C)NC(=O)[C@@H]1CCCN1C(=O)[C@H](CC(C)C)NC(=O)[C@H](CCCNC(=N)N)NC(=O)[C@H](CC(=O)O)NC(=O)[C@H](CC(N)=O)NC(=O)[C@H](Cc1ccc(O)cc1)NC(=O)[C@@H](N)CCCCN)C(=O)N[C@@H](CO)C(=O)N[C@@H](CC(N)=O)C(=O)N1CCC[C@H]1C(=O)O", "note": "[QQM, KYNDRLPLYISNP]", "values": [{"measurement": "IC50", "setting": "[1]", "result": 33, "unit": "nM"}, {"measurement": "IC50", "setting": "[2]", "result": 304, "unit": "nM"}]}
